# Source: US6410249B1, “Odorant receptors” (priority 1999, dated 2002)
# “Also recorded” adds a separate entry of the source. Like-named read-outs stand apart in the source and are kept apart here.
# Legend:
# receptor 5.24 [1] = target: T1, receptor 5.24 (Carassius auratus, UniProt Q9PW88); assay: evoked currents in Xenopus oocytes expressing receptor 5.24 (two-electrode voltage clamp); format: cell-based, goldfish
# T1 construct: The receptor 5.24 full length cDNA detects 1-2 bands in genomic DNA blots; expressed in transfected cells; host or cells: HEK 293 cells expressing SV40 large T antigen (293-TSA)
# T1 sequence (Q9PW88 25-877): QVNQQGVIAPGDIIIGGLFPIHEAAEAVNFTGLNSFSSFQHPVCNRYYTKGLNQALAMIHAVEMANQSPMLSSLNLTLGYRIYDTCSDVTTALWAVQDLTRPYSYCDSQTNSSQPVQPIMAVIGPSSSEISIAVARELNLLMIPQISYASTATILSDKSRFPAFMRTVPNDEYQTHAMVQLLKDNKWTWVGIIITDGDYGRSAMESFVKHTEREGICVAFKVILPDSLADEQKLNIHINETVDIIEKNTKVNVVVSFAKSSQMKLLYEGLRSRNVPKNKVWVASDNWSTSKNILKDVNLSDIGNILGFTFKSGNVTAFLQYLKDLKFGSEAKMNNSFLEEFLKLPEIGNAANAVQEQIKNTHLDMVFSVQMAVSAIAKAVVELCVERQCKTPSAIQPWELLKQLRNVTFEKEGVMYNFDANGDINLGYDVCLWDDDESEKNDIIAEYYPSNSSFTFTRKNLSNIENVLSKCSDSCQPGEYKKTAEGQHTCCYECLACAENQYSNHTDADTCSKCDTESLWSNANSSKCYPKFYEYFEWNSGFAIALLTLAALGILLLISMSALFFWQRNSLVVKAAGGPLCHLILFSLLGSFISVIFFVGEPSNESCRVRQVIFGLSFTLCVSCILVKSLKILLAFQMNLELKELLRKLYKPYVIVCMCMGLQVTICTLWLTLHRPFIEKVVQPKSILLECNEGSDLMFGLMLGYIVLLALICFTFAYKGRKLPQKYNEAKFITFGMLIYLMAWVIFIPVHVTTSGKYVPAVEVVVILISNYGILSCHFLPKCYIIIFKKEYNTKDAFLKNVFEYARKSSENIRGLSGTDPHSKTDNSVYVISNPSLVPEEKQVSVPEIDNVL
# Excerpt: Identification by Expression Cloning of a cDNA Encoding a Goldfish Odorant Receptor. RNA was synthesized from pools of goldfish olfactory cDNA clones (900 individual clones per pool) and injected into Xenopus oocytes together with synthetic RNAs encoding GIRK and Gaolf. Oocytes were then screened for responses upon exposure to odorant cocktails containing amino acids, bile acids, or sex pheromones. […] The response to amino acids was biphasic, beginning with an oscillating inward current above the basal inward K+ current, followed by a decline in inward current to below the basal level. Such a biphasic effect is thought to be caused by Gaq-mediated activation of phospholipase C (responsible for the intial inward current via IP3) and protein kinase C (leading to suppression of the K+ current through phosphorylation of GIRK channel subunits) (Sharon et al., 1997).
# Iterative subdivision of pool 19 by sib-selection allowed the isolation of a single clone encoding a receptor, designated receptor 5.24.
# Oocytes were removed from anesthetized Xenopus laevis and treated with collagenase. Forty nanograms of cRNA from each cDNA library pool (˜40 pg cRNA/clone) was injected per oocyte, together with cRNAs encoding Gaolf and the GIRK subunits Kir 3.1 and Kir 3.4 (˜30 pg each). Approximately 30 pools were assayed before these primary screens were halted. Injected oocytes were incubated at 17° C. for over 80 hours prior to electrophysiological recordings. Recordings were performed by two-electrode voltage clamping using an Axoclamp-2A amplifier (Axon Instruments) or a Dagan CA-1 amplifier (Dagan Corp.). Data acquisition and analysis were performed using pCLAMP software (Axon Instruments). Membrane potential was held at −80 mV. For trials involving GIRK, oocytes were first perfused with Na-MBSH (88 mM NaCl, 1 mM KCl, 2.4 mM NaHCO3, 10 mM Hepes, pH 7.5, 0.82 mM MgSO4[7H2O], 0.33 mM Ca[NO3]2[4H2O], 0.41 mM CaCl2[2H2O]), and then switched into K-MBSH, which contains elevated K+ (88 mM KCl, 1 mM NaCl) until the basal current had stabilized (˜45 seconds) before challenging with agonist. Recordings on oocytes injected with receptor 5.24 in the absence of Gaolf and/or GIRK subunits were performed in Na-MBSH. Oocytes were exposed to solutions containing different agonists by switching bathing solutions with an 8 channel valve (Hamilton).
# receptor 5.24 [2] = target: T1, receptor 5.24; assay: biochemical; format: binding; details: for binding to receptor 5.24, in words: comparative binding studies
# Protocol: Structure-Activity Properties of Compounds Interacting with the Cloned Goldfish Amino Acid Odorant Receptor. An understanding of how odorant receptors are used to encode olfactory information requires a characterization of the odorant specificities of individual receptor types. We therefore wished to determine the relative specificity of receptor 5.24 for structurally related ligands. […] Briefly, 3H-arginine binding to membranes from receptor 5.24-expressing HEK 293 cells was assayed in the absence or presence of varying concentrations of competitor ligands.
# Mammalian Cell Culture and DNA Transfections. For cell transfections, the receptor 5.24 cDNA insert was subcloned into two expression vectors: CMVI, which utilizes a human cytomegalovirus (CMV) immediate early promoter-enhancer plus the CMV intron A sequence to drive expression, and 608RX-2.2L, which is similar to CMVI except the cDNA insert is followed by an internal ribosome entry site (IRES)—enhanced green fluorescent protein (EGFP) coding sequence; 608RX-2.2L also contains a puromycin resistance gene. For transient assays, HEK 293 cells expressing the SV40 large T antigen (293 TSA cells) were transfected with the CMVI-receptor 5.24 or CMVI control plasmid using lipofectamine (Life Technologies) and harvested at 48 hours for membrane preparations. For stable cell lines, 293-TSA cells were transfected with the 608RX-2.2L-receptor 5.24 plasmid or a control 608RX-2.2L plasmid and selected in puromycin. Colonies showing high levels of EGFP fluorescence (as judged by epifluorescence microscopy) were picked, expanded, and screened for 3H-L-arginine binding (see below).
# Membrane Preparations and Ligand Binding Assays. Membranes for ligand binding assays were prepared by washing confluent cells three times with phosphate buffered saline (PBS), detaching cells with a PBS-based enzyme-free dissociation solution, and resuspending cells in ice-cold 5.0 mM Hepes, pH 7.4, 1.0 mM EDTA, 1.0 μg/ml leupeptin, 0.5 mM PMSF. All subsequent manipulations were performed on ice. After a 30 min incubation, the cell suspension was homogenized and centrifuged at 100,000×g for 30 min. Cell membrane pellets were washed twice by resuspension and centrifugation in binding buffer (20 mM Hepes, pH 7.4, 1.0 mM EDTA, 2.0 mM MgCl2, 1.0 μg/ml leupeptin, 0.5 mM PMSF), resuspended in binding buffer, and frozen at −80° C.
# Saturation binding assays were performed using 20-25 μg of membrane protein in a final volume of 100 μl binding buffer and increasing concentrations of [2,3-3H] L-arginine (specific activity=40 Ci/mmol; Dupont NEN). Non-specific binding was measured in the presence of 500 μM unlabeled L-arginine. Competition assays were performed with 500 nM [2,3-3H] L-arginine and increasing concentrations of competitor ligands. All incubations were performed at 4° C. for 60 min and terminated by rapid filtration through Whatman GF/C filters pretreated with ice cold 0.1% polyethyleneimine. Filters were washed three times with 4.0 ml ice cold 20 mM Hepes, pH 7.4, and retained radioactivity was measured by scintillation counting.
# [3] = displacement of 3H-L-arginine from membranes of HEK 293 cells expressing receptor 5.24, read-out: Ki (binding affinity)
# [4] = 3H-arginine displacement, read-out: Ki
# [5] = read-out: Ki (binding affinity), displacement of 3H-L-arginine from membranes of HEK 293 cells expressing receptor 5.24
structure (smiles),measurement,setting,value
C[C@@H](O)[C@H](N)C(=O)O [L-Threonine],"activation of receptor 5.24 (evoked currents), in words",receptor 5.24 [1],smaller responses
same,Ki,receptor 5.24 [2]; [3],3.2 µM
NCCC(=O)N[C@@H](Cc1cnc[nH]1)C(=O)O [Carnosine],Ki,receptor 5.24 [2]; [4],> 1000 µM
same,"binding to receptor 5.24, in words",receptor 5.24 [2],no specific interactions
same,Ki,receptor 5.24 [2]; [3],> 1000 µM
CC(C)C[C@H](N)C(=O)O [L-Leucine],Ki,receptor 5.24 [2]; [3],4.4 µM
[Ca+2] [calcium],"activation of receptor 5.24 (evoked currents), in words",receptor 5.24 [1],not activated
CC[C@H](C)[C@H](N)C(=O)O [L-Isoleucine],"activation of receptor 5.24 (evoked currents), in words",receptor 5.24 [1],smaller responses
same,Ki,receptor 5.24 [2]; [3],2.2 µM
CC(C)[C@H](N)C(=O)O [L-Valine],Ki,receptor 5.24 [2]; [3],6.2 µM
NCCC[C@H](N)C(=O)O [L-Ornithine],Ki,receptor 5.24 [2]; [4],1 µM
N[C@@H](Cc1c[nH]c2ccccc12)C(=O)O [L-Tryptophan],"activation of receptor 5.24 (evoked currents), in words",receptor 5.24 [1],little or no response
same,"binding to receptor 5.24, in words",receptor 5.24 [2],low affinities
same,Ki,receptor 5.24 [2]; [3],4.1 µM
N[C@@H](CC(=O)O)C(=O)O [L-Aspartate],Ki,receptor 5.24 [2],27 µM
N=C(N)NCCCC[C@H](N)C(=O)O [L-Homoarginine],Ki,receptor 5.24 [2],1.63 µM
NCCCCN [Putrescine],Ki,receptor 5.24 [2]; [3],> 1000 µM
NCCS(=O)(=O)O [Taurine],Ki,receptor 5.24 [2]; [4],> 1000 µM
same,"binding to receptor 5.24, in words",receptor 5.24 [2],no specific interactions
same,Ki,receptor 5.24 [2]; [3],> 1000 µM
NCCCCCN [Cadaverine],Ki,receptor 5.24 [2]; [4],> 1000 µM
same,"binding to receptor 5.24, in words",receptor 5.24 [2],essentially no binding
same,Ki,receptor 5.24 [2]; [3],> 1000 µM
"NCCCC(=O)O [γ-Aminobutyric Acid (GABA), γ-Aminobutyric Acid]",Ki,receptor 5.24 [2],> 1000 µM
same,"binding to receptor 5.24, in words",receptor 5.24 [2],no specific interactions
same,Ki,receptor 5.24 [2]; [5],> 1000 µM
CSCC[C@H](N)C(=O)O [L-Methionine],"activation of receptor 5.24 (evoked currents), in words",receptor 5.24 [1],smaller responses
same,Ki,receptor 5.24 [2]; [3],0.81 µM
N[C@@H](CS)C(=O)O [L-Cysteine],Ki,receptor 5.24 [2]; [3],0.53 µM
C[C@H](N)C(=O)O [L-Alanine],"activation of receptor 5.24 (evoked currents), in words",receptor 5.24 [1],smaller responses
same,Ki,receptor 5.24 [2]; [3],5.6 µM
NC(=O)NCCC[C@H](N)C(=O)O [L-Citruline],Ki,receptor 5.24 [2]; [3],0.96 µM
N[C@@H](Cc1ccccc1)C(=O)O [L-Phenylalanine],"activation of receptor 5.24 (evoked currents), in words",receptor 5.24 [1],little or no response
same,"binding to receptor 5.24, in words",receptor 5.24 [2],low affinities
same,Ki,receptor 5.24 [2]; [3],5.8 µM
COC(=O)[C@@H](N)CCCNC(=N)N[N+](=O)[O-] [L-NAME],"binding to receptor 5.24, in words",receptor 5.24 [2],modest affinity
same,Ki,receptor 5.24 [2]; [3],1.02 µM
N[C@@H](Cc1c[nH]cn1)C(=O)O [L-Histidine],"activation of receptor 5.24 (evoked currents), in words",receptor 5.24 [1],little or no response
same,Ki,receptor 5.24 [2],13 µM
same,"binding to receptor 5.24, in words",receptor 5.24 [2],low affinities
NC(=O)CC[C@H](N)C(=O)O [L-Glutamine],Ki,receptor 5.24 [2]; [3],0.32 µM
NC(=O)C[C@H](N)C(=O)O [L-Asparagine],Ki,receptor 5.24 [2]; [3],2.1 µM
N[C@@H](CCC(=O)O)C(=O)O [L-Glutamate],"activation of receptor 5.24 (evoked currents), in words",receptor 5.24 [1]; listed as Glutamate,does not appear to activate
same,"activation of receptor 5.24 (evoked currents), in words",receptor 5.24 [1]; listed as glutamate,little or no response; also recorded: not activated
same,fold decrease in affinity / displacement relative to arginine or lysine,receptor 5.24 [2]; 3H-arginine displacement,approximately 80 fold
same,Ki,receptor 5.24 [2]; [3],6.7 µM
O=C(O)[C@@H]1CCCN1 [L-Proline],"binding to receptor 5.24, in words",receptor 5.24 [2],low affinities
same,Ki,receptor 5.24 [2]; [3],58 µM
N=C(N)NCCCCN [Agmatine],Ki,receptor 5.24 [2],> 1000 µM
same,"binding to receptor 5.24, in words",receptor 5.24 [2],displaces 3H-arginine very poorly; also recorded: essentially no binding
same,Ki,receptor 5.24 [2]; [5],> 1000 µM
NCC(=O)O [L-Glycine],Ki,receptor 5.24 [2]; [3],3.9 µM
N[C@@H](Cc1ccc(O)cc1)C(=O)O [L-Tyrosine],"activation of receptor 5.24 (evoked currents), in words",receptor 5.24 [1],little or no response
same,Ki,receptor 5.24 [2],16 µM
same,"binding to receptor 5.24, in words",receptor 5.24 [2],low affinities
